Laboratory results: ChEMBL document CHEMBL6134824, “LPS-enriched interaction drives spectrum conversion in antimicrobial peptides: Design and optimization of AA16 derivatives for targeting gram-negative bacteria” (Eur J Med Chem, 2025)
Calls of active or inactive are those of the source. The calls are words filed in the database; no cut-off is given here.

Legend:
Escherichia coli = assay: Antibacterial activity against Escherichia coli NCTC 10418 incubated for 16 hrs under shaking condition by standard broth microdilution method; type: functional
[1] = Hemolytic activity at horse Erythrocyte assessed as hemolysis; type: toxicity, cell-based, Equus caballus; settings: horse erythrocytes
Staphylococcus aureus [2] = assay: Antibacterial activity against Staphylococcus aureus NCTC 10788 incubated for 16 hrs under shaking condition by standard broth microdilution method; type: functional
Staphylococcus aureus [3] = assay: Antibacterial activity against methicillin-resistant Staphylococcus aureus ATCC 43300 incubated for 16 hrs under shaking condition by standard broth microdilution method; type: functional
[4] = Hemolytic activity at mouse Red blood cell assessed as hemolysis; type: toxicity, cell-based; settings: erythrocyte
Pseudomonas aeruginosa = assay: Antibacterial activity against Pseudomonas aeruginosa ATCC 27853 incubated for 16 hrs under shaking condition by standard broth microdilution method; type: functional
Cell membrane [5] = assay: Induction of inner membrane disruption in Pseudomonas aeruginosa assessed as fluorescence intensity at 8 times MIC by DISC3-5 dye based fluorescence analysis; type: subcellular
Cell membrane [6] = assay: Induction of inner membrane disruption in […] assessed as change in fluorescence intensity at 8 times MIC by DISC3-5 dye based fluorescence analysis; type: subcellular
Cell membrane [7] = assay: Disruption of cell membrane integrity in methicillin-resistant Staphylococcus aureus assessed as reduction in green to red fluorescence by STYO 9 and PI staining based confocal microscopy analysis; type: subcellular
Cell membrane [8] = assay: Disruption of cell membrane integrity in Staphylococcus aureus assessed as reduction in green to red fluorescence by STYO 9 and PI staining based confocal microscopy analysis; type: subcellular

Row | Substance | MIC (Escherichia coli) | HC50 [1] | MIC (Staphylococcus aureus [2]) | MIC (Staphylococcus aureus [3]) | MHC [4] | MIC (Pseudomonas aeruginosa) | Flu intensity (Cell membrane [5]) | Activity (Cell membrane [6]) | Activity (Cell membrane [7]) | Activity (Cell membrane [8])
1 | Ac-AAKILSKILKGALKVL-NH2 | 8 µg/mL | 442 µg/mL | 8 µg/mL | 4 µg/mL | 442 µg/mL | 16 µg/mL |  |  |  | 
2 | Ac-AARIFSRILFGALRVL-NH2 | 32 µg/mL | 110 µg/mL | 8 µg/mL | 4 µg/mL | 110 µg/mL | 32 µg/mL |  |  |  | 
3 | Ac-AARIFSRILRGALRVL-NH2 | 8 µg/mL | 179 µg/mL | 4 µg/mL | 8 µg/mL | 179 µg/mL | 16 µg/mL |  |  |  | 
4 | Ac-AARILSRILFGALRVL-NH2 | 32 µg/mL | 51.7 µg/mL | 8 µg/mL | 8 µg/mL | 51.663 µg/mL | 32 µg/mL |  |  |  | 
5 | Ac-AARILSRILRFALRVL-NH2 | > 512 µg/mL | 34.2 µg/mL | 32 µg/mL | 16 µg/mL | 34.197 µg/mL | > 512 µg/mL | 2410 | Active | Active | Active
6 | Ac-AARILSRILRFFLRVL-NH2 | 256 µg/mL | 13.4 µg/mL | 128 µg/mL | 128 µg/mL | 13.37 µg/mL | > 512 µg/mL |  |  |  | 
7 | Ac-AARILSRILRGALRVL-NH2 | 32 µg/mL | 403 µg/mL | 4 µg/mL | 8 µg/mL | 403 µg/mL | 16 µg/mL |  |  |  | 
